Test results taken from the supplement of paper PMC10883282.

Assays:
Assay in all cases: relative viability vs DMSO control (72 h) (fraction); higher = more viable cells
[1] = tested on: G401
Method in brief: (§1)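 After seeding at densities set for 80–90% confluence in 384-well plates, sarcoma cell lines waited 24 h before 2.5 µl of serially diluted compound was added. Source plates held 10 mM down to 0.0002 mM. Plates were incubated 72 h at 37 °C with 5% CO2, with 0.1% DMSO vehicle and a 5 µM positive control, and relative viability was taken from ATPLite as percent growth averaged over up to triplicate wells, with 1 set as full and 0 as none.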

[2] = tested on: SK-LMS-1
Method in brief: as §1

[3] = tested on: MES-SA
Method in brief: as §1

[4] = tested on: SW872
Method in brief: as §1

[5] = tested on: SYO-1
Method in brief: as §1

[6] = tested on: A204
Method in brief: as §1

[7] = tested on: SK-ES-1
Method in brief: as §1

[8] = tested on: VA-ES-BJ
Method in brief: as §1

[9] = tested on: SW684
Method in brief: as §1

[10] = tested on: KHOS-NP
Method in brief: as §1

[11] = tested on: RD
Method in brief: as §1

[12] = tested on: HS729
Method in brief: as §1

Cn1ncnc1[C@H]1c2n[nH]c(=O)c3cc(F)cc(c23)N[C@@H]1c1ccc(F)cc1 [Talazoparib]
Conditions	relative viability
[1], 0.00017 µM	0.95
[1], 0.00051 µM	1.02
[1], 0.00152 µM	0.935
[1], 0.00457 µM	0.937
[1], 0.01372 µM	0.881
[1], 0.04115 µM	0.813
[1], 0.1235 µM	0.764
[1], 0.3704 µM	0.716
[1], 1.111 µM	0.663
[1], 3.333 µM	0.613
[1], 10 µM	0.555
[2], 0.00017 µM	1.01
[2], 0.00051 µM	1.05
[2], 0.00152 µM	0.999
[2], 0.00457 µM	0.999
[2], 0.01372 µM	0.982
[2], 0.04115 µM	0.956
[2], 0.1235 µM	0.9584
[2], 0.3704 µM	0.874
[2], 1.111 µM	0.833
[2], 3.333 µM	0.795
[2], 10 µM	0.778
[3], 0.00017 µM	0.972
[3], 0.00051 µM	0.975
[3], 0.00152 µM	0.945
[3], 0.00457 µM	0.901
[3], 0.01372 µM	0.768
[3], 0.04115 µM	0.678
[3], 0.1235 µM	0.555
[3], 0.3704 µM	0.478
[3], 1.111 µM	0.392
[3], 3.333 µM	0.351
[3], 10 µM	0.314
[4], 0.00017 µM	1.02
[4], 0.00051 µM	1.04
[4], 0.00152 µM	1.04
[4], 0.00457 µM	1.01
[4], 0.01372 µM	0.99
[4], 0.04115 µM	0.971
[4], 0.1235 µM	0.905
[4], 0.3704 µM	0.799
[4], 1.111 µM	0.628
[4], 3.333 µM	0.441
[4], 10 µM	0.34
[5], 0.00017 µM	0.974
[5], 0.00051 µM	0.961
[5], 0.00152 µM	0.885
[5], 0.00457 µM	0.743
[5], 0.01372 µM	0.582
[5], 0.04115 µM	0.466
[5], 0.1235 µM	0.336
[5], 0.3704 µM	0.193
[5], 1.111 µM	0.081
[5], 3.333 µM	0.0279
[5], 10 µM	0.0191
[6], 0.00017 µM	0.9664
[6], 0.00051 µM	0.987
[6], 0.00152 µM	0.963
[6], 0.00457 µM	0.932
[6], 0.01372 µM	0.906
[6], 0.04115 µM	0.846
[6], 0.1235 µM	0.715
[6], 0.3704 µM	0.674
[6], 1.111 µM	0.576
[6], 3.333 µM	0.519
[6], 10 µM	0.399
[7], 0.00017 µM	0.961
[7], 0.00051 µM	0.9
[7], 0.00152 µM	0.825
[7], 0.00457 µM	0.614
[7], 0.01372 µM	0.33
[7], 0.04115 µM	0.173
[7], 0.1235 µM	0.109
[7], 0.3704 µM	0.0754
[7], 1.111 µM	0.0494
[7], 3.333 µM	0.0309
[7], 10 µM	0.0277
[8], 0.00017 µM	1.01
[8], 0.00051 µM	1.01
[8], 0.00152 µM	1.01
[8], 0.00457 µM	0.955
[8], 0.01372 µM	0.926
[8], 0.04115 µM	0.849
[8], 0.1235 µM	0.738
[8], 0.3704 µM	0.601
[8], 1.111 µM	0.406
[8], 3.333 µM	0.225
[8], 10 µM	0.163
[9], 0.00017 µM	0.965
[9], 0.00051 µM	1.01
[9], 0.00152 µM	0.988
[9], 0.00457 µM	1.05
[9], 0.01372 µM	0.986
[9], 0.04115 µM	0.969
[9], 0.1235 µM	0.963
[9], 0.3704 µM	0.932
[9], 1.111 µM	0.893
[9], 3.333 µM	0.875
[9], 10 µM	0.865
[10], 0.00017 µM	1.02
[10], 0.00051 µM	1.04
[10], 0.00152 µM	1.03
[10], 0.00457 µM	1.04
[10], 0.01372 µM	1.02
[10], 0.04115 µM	1.01
[10], 0.1235 µM	1
[10], 0.3704 µM	0.968
[10], 1.111 µM	0.837
[10], 3.333 µM	0.675
[10], 10 µM	0.607
[11], 0.00017 µM	0.904
[11], 0.00051 µM	0.945
[11], 0.00152 µM	0.923
[11], 0.00457 µM	0.869
[11], 0.01372 µM	0.842
[11], 0.04115 µM	0.789
[11], 0.1235 µM	0.72
[11], 0.3704 µM	0.718
[11], 1.111 µM	0.629
[11], 3.333 µM	0.586
[11], 10 µM	0.577
[12], 0.00017 µM	1.05
[12], 0.00051 µM	1.05
[12], 0.00152 µM	1.03
[12], 0.00457 µM	1.02
[12], 0.01372 µM	1.02
[12], 0.04115 µM	1.03
[12], 0.1235 µM	0.961
[12], 0.3704 µM	0.949
[12], 1.111 µM	0.895
[12], 3.333 µM	0.8536
[12], 10 µM	0.812
